The source of these data is patent EP4741401A1, “BENZOTHIAZOIMIDAZOLYL COMPOUND AND USE THEREOF” (ER Stress Research Institute, Inc., priority 2023, dated 2025).

Each structure is given as a SMILES string.

Assay [1] has as its system 293A cells. In words: Cytoprotection under endoplasmic reticulum stress conditions (Tm-induced cell death). The class given is cell-based. Particulars: compound concentration inhibiting Tm-induced cell death by 50%, Tm 0.2 µg/mL, reporter cells. Here is the method:
The reporter cells same as those used in Example 1 were placed in each well of a 96-well assay plate and were treated with Tm at a final concentration of 0.2 µg/mL and the test compound. […]

In assay [2] the test system is endoplasmic reticulum stress response induced by Tm. In words: Suppression of endoplasmic reticulum stress response (ERSE2-UPRE-AARE-EGFP reporter fluorescence). The class given is cell-based. Particulars: 293A reporter cells, incubated at 37°C overnight, read-out: Suppression rank of endoplasmic reticulum stress response. On the procedure: A solution of the compound synthesized in "(1) Synthesis of benzothiazoimidazolyl compound" was appropriately diluted with a DMEM solution containing 10% fetal bovine serum (FBS), and the diluted solution was added to a 384-well assay plate at 10 µL/well. Next, 30 µL of a culture medium containing the reporter cells and 10 µL of the Tm solution were mixed, and the mixture was added to the 384-well assay plate at 40 µL/well such that the cell density was 18 × 10^3 cells/well, and the whole was incubated at 37°C overnight.
A multi-plate reader Citation 3 (Bio-Tek) was used to determine the EGFP fluorescence intensity (excitation wavelength: 485 nm, fluorescence wavelength: 528 nm) when the test compound was added. A smaller fluorescence intensity indicates more suppression of the increase in activity of the endoplasmic reticulum stress marker induced by Tm.
A "control" containing the Tm solution and, in place of the test compound solution, an equal volume of DMSO was subjected to the measurement of fluorescence intensity in a similar manner. In addition, a "background" containing a solution prepared in the same manner as for the Tm solution except that no Tm was added and containing, in place of the test compound solution, an equal volume of DMSO was subjected to the measurement of fluorescence intensity in a similar manner.
The fluorescence intensity was determined while the concentration of the test compound was varied, and the 50% effective concentration (IC50) of suppressing the endoplasmic reticulum stress response induced by Tm was calculated.

For the compound `CS(=O)(=O)c1ccc2c(c1)sc1nc(-c3ccc(C(F)(F)F)cc3)cn12` [IBT-31, 7-(methylsulfonyl)-2-(4-(trifluoromethyl)phenyl)benzo[d]imidazo[2,1-b]thiazole], the IC50 in assay [1] was 10 nM; in assay [2], at most 10 nM.
The like results for `CS(=O)(=O)c1ccc2c(c1)sc1nc(-c3ccc(Cl)c(Cl)c3)cn12` [IBT-32, 2-(3,4-dichlorophenyl)-7-(methylsulfonyl)benzo[d]imidazo[2,1-b]thiazole] were, in that order, 20 nM and 10 to 100 nM.
The like results for `COc1cccc(-c2cn3c(n2)sc2cc(S(C)(=O)=O)ccc23)c1` [IBT-33, 2-(3-methoxyphenyl)-7-(methylsulfonyl)benzo[d]imidazo[2,1-b]thiazole] were, in that order, 70 nM and 10 to 100 nM.
As for `CS(=O)(=O)c1ccc2c(c1)sc1nc(-c3ccc(F)cc3)cn12` [IBT-34, 2-(4-fluorophenyl)-7-(methylsulfonyl)benzo[d]imidazo[2,1-b]thiazole], the IC50 is 80 nM in assay [1] and 10 to 100 nM in assay [2].
Turning to `CNC(=O)CCc1ccc2c(c1)sc1nc(-c3ccc(Cl)cc3)cn12` [IBT-35, 3-(2-(4-chlorophenyl)benzo[d]imidazo[2,1-b]thiazol-7-yl)-N-methylpropanamide], the figures for the IC50 in assay [1] and in assay [2] were 40 nM and 10 to 100 nM, respectively.
For `COc1cc(-c2cn3c(n2)sc2cc(S(C)(=O)=O)ccc23)ccc1Cl` [IBT-36, 2-(4-chloro-3-methoxyphenyl)-7-(methylsulfonyl)benzo[d]imidazo[2,1-b]thiazole], the IC50 in assay [1] was 10 nM; in assay [2] it was at most 10 nM.
Take `CNC(=O)CCc1ccc2c(c1)sc1nc(-c3ccc(C(F)(F)F)cc3)cn12` [IBT-37, N-methyl-3-(2-(4-(trifluoromethyl)phenyl)benzo[d]imidazo[2,1-b]thiazol-7-yl)propanamide]: the IC50 was 30 nM in assay [1] and 10 to 100 nM in assay [2].
The corresponding values for `CNC(=O)CCCS(=O)(=O)c1ccc2c(c1)sc1nc(-c3ccc(C(F)(F)F)cc3)cn12` [IBT-38, N-methyl-4-((2-(4-(trifluoromethyl)phenyl)benzo[d]imidazo[2,1-b]thiazol-7-yl)sulfonyl)butanamide] are 90 nM and 10 to 100 nM.
The like results for `CCN(CC)C(=O)CCc1ccc2c(c1)sc1nc(-c3ccc(C(F)(F)F)cc3)cn12` [IBT-39, N,N-diethyl-3-(2-(4-(trifluoromethyl)phenyl)benzo[d]imidazo[2,1-b]thiazol-7-yl)propanamide] were, in that order, 80 nM and 10 to 100 nM.
For `FC(F)(F)c1ccc(-c2cn3c(n2)sc2ccccc23)cc1` [IBT-40, 2-(4-(trifluoromethyl)phenyl)benzo[d]imidazo[2,1-b]thiazole], the IC50 was 100 nM in assay [1] and 10 to 100 nM in assay [2].
For `C#CCOc1ccc(-c2cn3c(n2)sc2cc(S(C)(=O)=O)ccc23)cc1` [IBT-41, 7-(methylsulfonyl)-2-(4-(prop-2-yn-1-yloxy)phenyl)benzo[d]imidazo[2,1-b]thiazole 2,2,2-trifluoroacetate], the figures for the IC50 in assay [1] and in assay [2] were 90 nM and 10 to 100 nM, respectively.
The corresponding values for `COc1ccc(-c2cn3c(n2)sc2cc(S(C)(=O)=O)ccc23)cc1` [IBT-43, 2-(4-methoxyphenyl)-7-(methylsulfonyl)benzo[d]imidazo[2,1-b] thiazole] are 170 nM and 100 to 1000 nM.
Take `CS(=O)(=O)c1ccc2c(c1)sc1nc(-c3ccc(Cl)cc3Cl)cn12` [IBT-44, 2-(2,4-dichlorophenyl)-7-(methylsulfonyl)benzo[d]imidazo[2,1-b]thiazole]: the IC50 in assay [1] is 450 nM; in assay [2], 100 to 1000 nM.
Take `CCOC(=O)c1ccc2c(c1)sc1nc(-c3ccc(Cl)cc3)cn12` [IBT-45, ethyl 2-(4-chlorophenyl)benzo[d]imidazo[2,1-b]thiazole-7-carboxylate]: the IC50 was 350 nM in assay [1] and 100 to 1000 nM in assay [2].
In the case of `CCOc1ccc2c(c1)sc1nc(-c3ccc(Cl)cc3)cn12` [IBT-46, 2-(4-chlorophenyl)-7-ethoxybenzo[d]imidazo[2,1-b]thiazole], the IC50 was 560 nM in assay [1] and 100 to 1000 nM in assay [2].
With `COc1cccc2sc3nc(-c4ccc(Cl)cc4)cn3c12` [IBT-51, 2-(4-chlorophenyl)-5-methoxybenzo[d]imidazo[2,1-b]thiazole], the figures for the IC50 in assay [1] and in assay [2] were 7720 nM and over 1000 nM, respectively.
The corresponding values for `CNC(=O)CCCNS(=O)(=O)c1ccc2c(c1)sc1nc(-c3ccc(C(F)(F)F)cc3)cn12` [IBT-52, N-methyl-4-((2-(4-(trifluoromethyl)phenyl)benzo[d]imidazo[2,1-b]thiazole)-7-sulfonamido)butanamide] are 420 nM and 100 to 1000 nM.
The corresponding values for `CC(C)(C)OC(=O)NCCOCCNC(=O)CCc1ccc2c(c1)sc1nc(-c3ccc(C(F)(F)F)cc3)cn12` [IBT-53, tert-butyl (2-(2-(3-(2-(4-(trifluoromethyl)phenyl)benzo[d]imidazo[2,1-b]thiazol-7-yl)propanamido)ethoxy)ethyl)carbamate] are 4470 nM and over 1000 nM.
The like results for `CCN(CC)C(=O)CCCS(=O)(=O)c1ccc2c(c1)sc1nc(-c3ccc(C(F)(F)F)cc3)cn12` [IBT-55, N,N-diethyl-4-((2-(4-(trifluoromethyl)phenyl)benzo[d]imidazo[2,1-b]thiazol-7-yl)sulfonyl)butanamide] were, in that order, 660 nM and 100 to 1000 nM.
With `C#CCOc1cc(-c2cn3c(n2)sc2cc(S(C)(=O)=O)ccc23)ccc1Cl` [IBT-56, 2-(4-chloro-3-(prop-2-yn-1-yloxy)phenyl)-7-(methylsulfonyl)benzo[d]imidazo[2,1-b]thiazole], the IC50 is 560 nM in assay [1] and 100 to 1000 nM in assay [2].
The like results for `C#CCNC(=O)CCc1ccc2c(c1)sc1nc(-c3ccc(C(F)(F)F)cc3)cn12` [IBT-57] were, in that order, 3800 nM and over 1000 nM.
Take `CC(C)(C)OC(=O)NCCCOc1cc(-c2cn3c(n2)sc2cc(S(C)(=O)=O)ccc23)ccc1Cl` [IBT-58, tert-butyl (3-(2-chloro-5-(7-(methylsulfonyl)benzo[d]imidazo[2,1-b]thiazol-2-yl)phenoxy)propyl)carbamate]: the IC50 in assay [1] is 3200 nM; in assay [2], over 1000 nM.
As for `OCc1ccc2c(c1)sc1nc(-c3ccc(Cl)cc3)cn12` [IBT-59, (2-(4-chlorophenyl)benzo[d]imidazo[2,1-b]thiazol-7-yl)methanol], the IC50 in assay [1] was 410 nM; in assay [2] it was 100 to 1000 nM.
The corresponding values for `C#CCOCc1ccc2c(c1)sc1nc(-c3ccc(Cl)cc3)cn12` [IBT-60, 2-(4-chlorophenyl)-7-((prop-2-yn-1-yloxy)methyl)benzo[d]imidazo[2,1-b]thiazole 2,2,2-trifluoroacetate] are 900 nM and 100 to 1000 nM.
The like results for `C#CCCC1(CCNC(=O)CCc2ccc3c(c2)sc2nc(-c4ccc(C(F)(F)F)cc4)cn23)N=N1` [IBT-61, N-(2-(3-(but-3-yn-1-yl)-3H-diazirin-3-yl)ethyl)-3-(2-(4-(trifluoromethyl)phenyl)benzo[d]imidazo[2,1-b]thiazol-7-yl)propanamide] were, in that order, 4160 nM and over 1000 nM.
